Assay results as given in patent publication US5639793A, “Mammalian DNA topoisomerase II inhibitor and method” (The University of North Carolina at Chapel Hill, priority 1995, dated 1997).
“Also recorded” adds a separate entry of the source. Like-named read-outs stand apart in the source and are kept apart here.

Experiments:
[1] = system: BHK-Ve cells (BHK-B cells treated with vincristine in the presence of verapamil); test: BHK-Ve cell growth inhibition; assay type: cell-based, hamster
Experimental: (§1) Cell growth inhibition assays were performed according to published procedures (Crumpton).
Verapamil inhibits drug binding to the p170 glycoprotein drug efflux pump.
(§2) The HOS cell growth inhibition assays were done according to a published procedure (Crumpton). All cells were grown in Eagle's minimium essential medium supplemented with 10% fetal bovine serum. Flasks were seeded at a density of 1×10^3 cell/cm^2 for monolayer cultures or 2×10^4 /ml for suspension cultures. Suspension cultures were used immediately for drug addition after dilution to a suitable starting density, and, about 24 hours after seeding, the compounds to be tested were added to the monolayer cultures. […] Control flasks also contained 0.1% DMSO.
(§3) Colonies of about 50 or more cells were counted and the plating efficiency was calculated as the per cent cells that were able to form colonies (Goz).

[2] = system: BHK-B cells (vincristine-selected, expressing p170 glycoprotein); settings: for Export by the drug efflux pump: p170 glycoprotein, conclusion from BHK-B data; for BHK-B growth inhibition compared with BHK, in words: BHK-B versus BHK; for EC50: read-out: BHK-B-EC50
Experimental: as §1
BHK-B cells are baby hamster kidney cells that have been selected with 0.05 microgram/ml vincristine and that express p170 glycoprotein. Sensitivity of BHK-B cells to TFC, TMBC and vincristine was investigated.
as §2, §3

[3] = system: baby hamster kidney (BHK) cells; test: BHK cell growth inhibition; assay type: cell-based
Experimental: (§4) Additionally, baby hamster kidney (BHK) cell growth inhibition by these derivatives was investigated.
as §1, §2, §3

[4] = system: human osteogenic sarcoma (HOS) cells; test: Protein-linked DNA breaks in HOS cells (K-SDS precipitation); assay type: cell-based; settings: for Induction of protein-linked DNA breaks: 30 minutes; for Induction of protein-linked DNA breaks in HOS cells: 20 micromolar, FIG. 9B; for Reversal of protein-linked DNA breaks after drug removal: an hour after removal
Experimental: Quantitation of protein-linked DNA breaks was performed according to a published procedure (Rowe). DNA in growing cells was labeled by adding methyl-^3 H-thymidine. […] Cells were lysed and protein-linked DNA complexes were precipitated by the K-SDS precipitiation method (Rowe).
(§5) A modified K-SDS precipitation assay was used to quantitate in vivo formation of protein-linked DNA breaks (Rowe). HOS cells were grown in Eagle's medium. The DNA in logarithmically growing cells (about 2×10^5 cells) was labelled by adding tritiated methyl-thymidine (specific activity: 40 Ci/mmol) into the medium to a final concentration of 0.5 microCurie per ml. After overnight incubation, cells were washed and incubated for another 2 hours at 37° C. The cells were then treated with various concentrations of drugs for 30 minutes. The cells were lysed with 1 ml prewarmed lysis solution containing 1.25% SDS, 5 mM EDTA (pH 8) salmon sperm DNA (0.4 mg/ml).
(§6) The lysate was transferred to a 1.5 ml Eppendorf tube and after syringing 8 times through a 22 G 11/2 gauge needle, 250 microliter of 325 mM KCl were added. The sample was cooled on ice for 10 minutes and centrifuged at 4° C. The pellet was resuspended in 10 mM Tris-HCl (pH 8)-100 mM KCl-1 mM EDTA and salmon sperm DNA (0.1 mg/ml) and placed at 65° C. for 10 minutes with occasional mixing. The suspension was cooled on ice for 10 minutes and recentrifuged. The pellet was washed again before resuspending in water (65° C.). The suspension was combined with 4 ml scintillation fluid and the radioactivity was determined.
(§7) Protein-linked DNA breaks assays were performed as described for Example 4 using HOS and HOS colR cells. Cells were treated with 20 micromolar […], TFC and TMBC.

[5] = background; cited from earlier work
[6] = system: mammalian DNA topoisomerase II; test: P4 DNA unknotting assay, topoisomerase II inhibition in vitro; assay type: biochemical, HeLa (human); settings: for Topoisomerase II activity on decreasing drug concentration (P4 DNA unknotting): 2-fold serial dilutions; for Potency relative to VP-16 (topoisomerase II inhibition): more potent than VP-16
Experimental: DNA topoisomerase II was purified as described (Kashiwada). Briefly, a 150 mM NaCl extract from Triton X-100-treated HeLa cell nuclei was obtained. Salt was dialyzed and the partially purified enzyme was loaded on a heparin-Sepahrose CL-6B column and batch eluted with a buffer containing increasing salt concentrations.
Enzyme activity was measured using the P4 DNA unknotting assay (Liu, 1981). P4 DNA isolated from bacteriophage P4 consists of monomeric DNA circles with their cohesive ends hydrogen-bonded and contains multiple topological knots. Such highly knotted P4 DNA can be converted to its simple circular form by mammalian DNA topoisomerase II, and can be used as a sensitive assay to detect topoisomerase II activity.
P4 DNA unknotting reactions by topoisomerase II were performed in the absence or presence of potential topoisomerase II inhibitors. […] Products from the […] reactions were run out on an agarose gel to determine the extent of P4 DNA unknotting and stained with ethidium bromide.
Topoisomerase II was purified from calf thymus by a known method (Kashiwada). P4 DNA was prepared as described (Liu, 1983). Agarose gel assays for P4 DNA unknotting were performed as follows. Reactions (20 microliters) containing 50 mM Tris-HCl (pH 7.5), 100 mM KCl, 10 mM magnesium chloride, 1 mM ATP, 0.5 mM dithiothreitol, 0.5 mM EDTA, bovine serum albumin (30 microgram/ml), 100 ng P4 DNA, one unit of HeLa DNA topoisomerase II, and varying concentrations of topoisomerase II inhibitors were incubated at 37° C. After 30 minutes, reactions were terminated by addition of a solution containing 10% SDS. The samples were electrophoresed through a 1% agarose gel in 90 mM Trisborate (pH 8.3)-2 mM EDTA buffer (Rowe).

HIV replication = settings: background (Baum); cited from earlier work
HOS colR cells = test: Protein-linked DNA breaks in HOS colR cells; assay type: cell-based, human; settings: 20 micromolar, FIG. 9B
Experimental: The amount of protein-linked DNA breaks caused by VP-16, TFC and TMBC were compared in HOS and HOS colR cells to determine whether […] glycoprotein expression would affect these drugs' ability to induce protein-linked DNA breaks and inhibit topoisomerase II activity.
as §5, §6, §7

[7] = system: mammalian DNA topoisomerase II; settings: D'Arpa; cited from earlier work
[8] = system: human osteogenic sarcoma (HOS) cells; test: HOS cell growth inhibition (antiproliferative activity); assay type: cell-based
Experimental: as §4, §1, §2, §3

HOS cells = test: Plating efficiency / cytotoxicity in HOS cells; settings: one-hour treatment, Table 1
Experimental: Plating efficiencies are indicative of a compound's cytotoxicity (Goz).
as §3

[9] = system: HOS cells resistant to colchicine (HOS colR), expressing p170 glycoprotein; test: HOS colR cell growth inhibition; assay type: cell-based, human; settings: for EC50: HOS colR cells; for EC50 for HOS colR cells compared with HOS cells: HOS colR versus HOS not expressing p170
Experimental: as §1, §2, §3

[10] = read-out: EC50, HOS cell replication
[11] = 10-50 micromolar TFC, increasing concentrations TMBC
[12] = Table 2, read-out: HOS ColR EC50

## CC[C@]1(O)C[C@H]2CN(CCc3c([nH]c4ccccc34)[C@@](C(=O)OC)(c3cc4c(cc3OC)N(C=O)[C@H]3[C@@](O)(C(=O)OC)[C@H](OC(C)=O)[C@]5(CC)C=CCN6CC[C@]43[C@@H]65)C2)C1 [Vincristine, reference compound]
[1]; Table 2
  BHK-Ve-EC50 / concentration necessary to inhibit BHK-Ve cell growth: 2.7 µg/mL
[2]; BHK-B cells, Table 2
  BHK-B-EC50: 0.34 µg/mL
[2]; hamster, bhk-b vs bhk cells
  Concentration necessary to inhibit BHK-B growth relative to BHK: approximately 50 fold
[2]
  Export by the drug efflux pump: exported by the drug efflux pump
[3]; Table 1
  BHK--EC50: 0.006 µg/mL

## COc1cc2c(c(OC)c1OC)-c1ccc(OC)c(=O)cc1[C@@H](NC(C)=O)CC2 [Colchicine, colchicine, reference compound]
[4]; colchicine 50 micromolar
  Induction of protein-linked DNA breaks: did not induce protein-linked DNA breaks
[5]
  Toxicity at therapeutic doses: usually at toxic or nearly toxic doses
[6]; concentrations as high as 200 micromolar
  Inhibition of topoisomerase II activity: does not appear to inhibit topoisomerase II activity
HIV replication
  Inhibition of HIV replication: inhibitor of HIV replication

## COc1cc([C@@H]2c3cc4c(cc3[C@@H](O[C@@H]3O[C@@H]5CO[C@@H](C)O[C@H]5[C@H](O)[C@H]3O)[C@H]3COC(=O)[C@H]23)OCO4)cc(OC)c1O [VP-16, etoposide, reference compound]
[4]
  Induction of protein-linked DNA breaks in HOS cells: very effective to cause protein-linked DNA breaks
[6]; 100 to 12.5 micromolar, FIG. 8 lanes 3-6
  Topoisomerase II activity on decreasing drug concentration (P4 DNA unknotting): increase of topoisomerase II activity as the concentration of VP-16 is decreased
HOS colR cells
  Induction of protein-linked DNA breaks in HOS colR cells: limited effect in causing protein-linked DNA breaks
[7]
  Topoisomerase II inhibition, known: known to inhibit topoisomerase II activity

## O=C(N[C@H]1CCc2cc(O)c(O)c(O)c2-c2ccc(O)c(=O)cc21)c1cc(O)c(O)c(O)c1 [TMBC, N-(3',4',5'-trihydroxybenzoyl)-1,2,3,10-tetrademethyldeacetylcolchicine]
[8]; Table 1, read-out: HOS--EC50
  EC50: 21 µM
[8]; [10]
  EC50: 21 µM
HOS cells
  HOS--LD50: 18 µM
[1]; Table 2, read-out: BHK-Ve-EC50
  EC50: 24 µM
[1]; read-out: EC50, BHK-Ve cells
  EC50: 24 µM
[4]
  Induction of protein-linked DNA breaks in HOS cells: can induce protein-linked DNA cleavage to a lesser extent
  Reversal of protein-linked DNA breaks after drug removal: more slowly reversed than for TFC, so that after an hour's time after reversal some protein-linked DNA breaks still remain
[4]; [11]
  Induction of protein-linked DNA breaks: almost as effective as TFC for protein-linked DNA break induction; also recorded: induce protein-linked DNA breaks in a dose-dependent fashion
[9]; [12]
  EC50: 28 µM
[9]; read-out: EC50, HOS colR cells
  EC50: 28 µM
[9]
  EC50 for HOS colR cells compared with HOS cells: remained virtually unchanged
[6]
  Potency relative to VP-16 (topoisomerase II inhibition): ~17 fold
HOS colR cells
  Induction of protein-linked DNA breaks in HOS colR cells: Neither protein-linked DNA cleavage by either TFC or TMBC appear to be affected by the expression of g170 glycoprotein
[2]
  BHK-B growth inhibition compared with BHK, in words: inhibited by approximately similar concentrations
  Export by the drug efflux pump: are not
[2]; BHK-B cells, Table 2
  EC50: 13 µM
[3]; Table 1, read-out: BHK--EC50
  EC50: 28 µM
[3]; read-out: EC50, BHK growth inhibition
  EC50: 28 µM

## O=C(N[C@H]1CCc2cc(O)c(O)c(O)c2-c2ccc(O)c(=O)cc21)C(F)(F)F [TFC, N-trifluoroacetyl-1,2,3,10-tetrademethyldeactylcolchicine]
[8]; Table 1, read-out: HOS--EC50
  EC50: 28 µM
[8]; [10]
  EC50: 28 µM
HOS cells
  HOS--LD50: 14 µM
[1]; Table 2, read-out: BHK-Ve-EC50
  EC50: 37 µM
[1]; read-out: EC50, BHK-Ve cells
  EC50: 37 µM
[4]
  Induction of protein-linked DNA breaks in HOS cells: can induce protein-linked DNA cleavage to a lesser extent
  Reversal of protein-linked DNA breaks after drug removal: within an hour all the protein-linked DNA breaks have been reversed
[4]; [11]
  Induction of protein-linked DNA breaks: induces DNA breaks in a dose-dependent manner; also recorded: induce protein-linked DNA breaks in a dose-dependent fashion
[4]; within half an hour after removal
  Protein-linked DNA breaks reversed within half an hour of drug removal: approximately 90%
[9]; [12]
  EC50: 26 µM
[9]; read-out: EC50, HOS colR cells
  EC50: 26 µM
[9]
  EC50 for HOS colR cells compared with HOS cells: remained virtually unchanged
[6]; 50 to 6.25 micromolar, FIG. 8 lanes 7-10
  Topoisomerase II activity on decreasing drug concentration (P4 DNA unknotting): more striking increase of enzyme activity as the concentration of TFC is decreased
[6]
  Potency relative to VP-16 (topoisomerase II inhibition): about 2 fold
HOS colR cells
  Induction of protein-linked DNA breaks in HOS colR cells: Neither protein-linked DNA cleavage by either TFC or TMBC appear to be affected by the expression of g170 glycoprotein
[2]
  BHK-B growth inhibition compared with BHK, in words: inhibited by approximately similar concentrations
  Export by the drug efflux pump: are not
[2]; BHK-B cells, Table 2
  EC50: 82 µM
